molecular target: T1, human PDGFRβ (Homo sapiens, UniProt P09619); experiment: PDGFRβ HTRF Assay (assay 6); format: biochemical; conditions: pIC50 class; 10 μM ATP; read-out: Enzymatic PDGFRβ activity (assay 6)
T1 construct: C-terminal fragment of human PDGFRβ (amino acids 561-1106); GST; His; purchased Proqinase [Freiburg i.Brsg., Germany]; host or cells: insect cells [SF9]
Source text: Assay 6: PDGFRβ HTRF Assay
PDGFRβ inhibitory activity of compounds of the present invention was quantified employing the PDGFRβ HTRF assay as described in the following paragraphs.
As kinase, a GST-His fusion protein containing a C-terminal fragment of human PDGFRβ (amino acids 561-1106, expressed in insect cells [SF9] and purified by affinity chromatography, purchased from Proqinase [Freiburg i.Brsg., Germany] was used. As substrate for the kinase reaction the biotinylated poly-Glu, Tyr (4:1) copolymer (#61GT0BLA) from Cis Biointernational (Marcoule, France) was used.
For the assay 50 nl of a 100 fold concentrated solution of the test compound in DMSO was pipetted into a black low volume 384 well microtiter plate (Greiner Bio-One, Frickenhausen, Germany), 2 μl of a solution of PDGFRβ in aqueous assay buffer [50 mM HEPES/NaOH pH 7.5, 10 mM MgCl2, 2.5 mM dithiothreitol, 0.01% (v/v) Triton-X100 (Sigma)] were added and the mixture was incubated for 15 min at 22° C. to allow pre-binding of the test compounds to the enzyme before the start of the kinase reaction. Then the kinase reaction was started by the addition of 3 μl of a solution of adenosine-tri-phosphate (ATP, 16.7 μM=>final conc. in the 5 μl assay volume is 10 μM) and substrate (2.27 μg/ml=>final conc. in the 5 μl assay volume is 1.36 μg/ml [˜30 nM]) in assay buffer and the resulting mixture was incubated for a reaction time of 25 min at 22° C. The concentration of PDGFRβ in the assay was adjusted depending of the activity of the enzyme lot and was chosen appropriate to have the assay in the linear range, typical enzyme concentrations were in the range of about 125 pg/μl (final conc. in the 5 μl assay volume). The reaction was stopped by the addition of 5 μl of a solution of HTRF detection reagents (200 nM streptavidine-XLent [Cis Biointernational] and 1.4 nM PT66-Eu-Chelate, an europium-chelate labelled anti-phospho-tyrosine antibody from Perkin Elmer) in an aqueous EDTA-solution (100 mM EDTA, 0.2% (w/v) bovine serum albumin in 50 mM HEPES/NaOH pH 7.5).
The resulting mixture was incubated 1 h at 22° C. to allow the binding of the biotinylated phosphorylated peptide to the streptavidine-XLent and the PT66-Eu-Chelate. Subsequently the amount of phosphorylated substrate was evaluated by measurement of the resonance energy transfer from the PT66-Eu-Chelate to the streptavidine-XLent. Therefore, the fluorescence emissions at 620 nm and 665 nm after excitation at 350 nm was measured in a HTRF reader, e.g. a Rubystar (BMG Labtechnologies, Offenburg, Germany) or a Viewlux (Perkin-Elmer). The ratio of the emissions at 665 nm and at […] was taken as the measure for the amount of phosphorylated substrate. […]

T1 sequence (P09619 561-1106): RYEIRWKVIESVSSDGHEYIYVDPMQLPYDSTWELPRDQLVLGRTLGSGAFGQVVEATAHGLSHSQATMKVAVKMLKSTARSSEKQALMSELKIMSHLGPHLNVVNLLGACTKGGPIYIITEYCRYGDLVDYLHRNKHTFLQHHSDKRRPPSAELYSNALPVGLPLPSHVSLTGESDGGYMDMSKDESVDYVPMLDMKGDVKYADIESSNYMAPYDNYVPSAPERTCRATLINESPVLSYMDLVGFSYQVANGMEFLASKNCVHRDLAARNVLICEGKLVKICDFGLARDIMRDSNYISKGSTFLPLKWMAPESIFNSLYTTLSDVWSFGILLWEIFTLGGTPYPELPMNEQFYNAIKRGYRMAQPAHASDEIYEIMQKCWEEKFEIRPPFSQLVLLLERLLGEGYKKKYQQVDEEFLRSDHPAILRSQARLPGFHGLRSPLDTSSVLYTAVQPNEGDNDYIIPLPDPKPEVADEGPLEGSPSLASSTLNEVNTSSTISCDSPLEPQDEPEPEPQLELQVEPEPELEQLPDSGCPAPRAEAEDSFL

IC50 | Structure (SMILES)
< 1 µM | Cn1ncc2c(C#Cc3cccc(NC(=O)c4cccc(C(F)(F)F)c4)c3)cncc21 [Example 1.5, N-[3-(1-Methyl-1H-pyrazolo[3,4-c]pyridin-4-ylethynyl)-phenyl]-3-trifluoromethyl-benzamide]
< 1 µM | Cc1ccc(NC(=O)c2cccc(C(F)(F)F)c2)cc1C#Cc1cncc2c1cnn2C [Example 1.6, N-[4-Methyl-3-(1-methyl-1H-pyrazolo[3,4-c]pyridin-4-ylethynyl)-phenyl]-3-trifluoromethyl-benzamide]
< 1 µM | Cn1ncc2c(C#Cc3cccc(NC(=O)Nc4ccccc4)c3)cncc21 [Example 2.1, 1-[3-(1-Methyl-1H-pyrazolo[3,4-c]pyridin-4-ylethynyl)-phenyl]-3-phenyl-urea]
< 1 µM | Cc1ccc(NC(=O)Nc2cccc(C(F)(F)F)c2)cc1C#Cc1cncc2c1cnn2C [Example 2.4, 1-[4-Methyl-3-(1-methyl-1H-pyrazolo[3,4-c]pyridin-4-ylethynyl)-phenyl]-3-(3-trifluoromethyl-phenyl)-urea]
